# Test results taken from patent US20120021905A1, “Pesticidal Mixtures” (priority 2009, published 2012).
# Like-named read-outs stand apart in the source and are kept apart here.
# How the values were obtained:
# Settings in all cases: 7 days after inoculation, 405 nm
# Pyricularia oryzae = type: cell-based
# Septoria tritici = test system: Septoria tritici
# Botrytis cinerea = assay: Microtest: activity against the grey mold Botrytis cinerea in the microtiterplate test (Botrci); type: cell-based
smiles,measurement,setting,value
"O=[N+]([O-])NC1=NCCN1Cc1ccc(Cl)nc1 [Imidacloprid, imidacloprid]",Observed efficacy,Pyricularia oryzae; 63 ppm,0
same,Observed efficacy,Septoria tritici; 4 ppm,2
COC(=O)N(OC)c1ccccc1COc1ccn(-c2ccc(Cl)cc2)n1 [Pyraclostrobin],Observed efficacy,Pyricularia oryzae; 0.001 ppm,21
same,Observed efficacy,Septoria tritici; 0.004 ppm,49
C/C(=N\C#N)N(C)Cc1ccc(Cl)nc1 [acetamipyrid],Observed efficacy,Pyricularia oryzae; 63 ppm,0
CN/C(=N\[N+](=O)[O-])NCc1cnc(Cl)s1 [clothianidin],Observed efficacy,Botrytis cinerea; 16 ppm,0
N#Cc1nn(-c2c(Cl)cc(C(F)(F)F)cc2Cl)c(N)c1[S+]([O-])C(F)(F)F (stereo not drawn) [fipronil],Observed efficacy,Pyricularia oryzae; 0.063 ppm,0
same,Observed efficacy,Botrytis cinerea; 0.016 ppm,0
"COCC(=O)N(c1c(C)cccc1C)C(C)C(=O)OC (stereo not drawn) [metalaxyl, Metalaxyl]",Observed efficacy,Pyricularia oryzae; 4 ppm,0
CN1COCN(Cc2cnc(Cl)s2)/C1=N\[N+](=O)[O-] [thiamethoxam],Observed efficacy,Pyricularia oryzae; 1 ppm,41
same,Observed efficacy,Botrytis cinerea; 16 ppm,0
same,Observed efficacy,Septoria tritici; 1 ppm,62
